{"source": "patent US20170182108A1", "about": "“FERMENTED FOOD EXTRACT COMPOSITION” (priority 2014, published 2017)", "key": {"[1]": {"system": "systolic blood pressure of SHRs", "assay": "single oral administration test to SHRs (blood pressure by tail cuff method)", "assay_type": "in vivo, rat (spontaneously hypertensive rat", "conditions": "single oral 10^−11 mol/kg, SHR; for maximum decrease in systolic blood pressure: 9 h after administration, compared to the control group; for blood pressure effect compared to the control group: measured 3, 6, 9 and 24 h after administration", "experimental": "Animal experiments were carried out according to the animal experiment guidelines of Shinshu University. In the present study, spontaneously hypertensive rats of 10-13 week-old males (SHR/NCrlCrlj, Charles River Laboratories Japan, Yokohama) were used as an experimental animal. SHRs were bred in individual cages in a breeding room controlled with a light-dark cycle of […] and a room temperature of 22-23° C. In acclimation breeding, rat standard diet (MF; Charles River Laboratories) and tap water were fed ad libitum. SHRs are a rat strain that has been isolated in 1963 by selection mating from Wistar-Kyoto rats that had been bred in the animal experimentation center of Kyoto University. They are referred to as spontaneously hypertensive rats or essential hypertensive rats; while systolic blood pressure of the separation maternal. Wistar-Kyoto rats is approximately 135 mmHg for mature males and approximately 132 mmHg for mature females, blood pressure of almost all the SHRs becomes 150 mmHg or higher at 2 months from the birth, and reaches almost a maximum value at 4-5 months, with many of the values showing 180-210 mmHg. In general, as a model animal of essential hypertension that s said to be account for approximately 90% of the hypertension in humans, SHRs have been used to elucidate pharmacological effects and food functions, and a mechanism of blood pressure rise.\nSingle oral administration test was carried out using male 12-week-old SHRs with a body weight of 280-320 g. After acclimation breeding for 1 week, the rats were fasted for 12 h, and a sample was given to the rats by a single oral administration. The sample to be administered was dissolved in pure water, and given by a single oral administration with a dose of 10^−11 mol/kg (b.w.) to each 6 SHRs. Sample aqueous solutions of purified acetylcholine, propionylcholine and butyrylcholine were acidic, with a pH of 4.7, 4,3, and 4.4, respectively. To the control group, pure water was administered. Changes in the systolic blood pressure and diastolic blood pressure were measured using non-invasive blood pressure measuring instrument Softron BP-98A (Softron Co., Ltd., Tokyo) by tail cuff method, before administration and at 3, 6, 9, and 24 h after administration. Results of the single oral administration test of purified acetylcholine, propionylcholine and butyrylcholine were shown in FIG. 7."}, "[2]": {"system": "thoracic aorta specimens of SHRs", "assay": "measurement test of isometric tension in blood vessels (vasodilatory effect on phenylephrine-constricted ring specimens)", "assay_type": "cell-based, rat (spontaneously hypertensive rat, SHR)", "design": "dilation rate: dose or concentration left out as unconfirmed", "conditions": "for concentration from which a vasodilatory effect / dilation reaction is shown: cumulative addition", "experimental": "In the examination of each condition, concentration of the active ingredient was checked by identifying fractions showing vasodilatory effect by measurement test of isometric tension in blood vessels at each purification stage.\nThoracic aorta used for the test was removed from a male 10-12 week-old SHR; after removal of the connective tissue, it was cut into a length 2-3 mm to produce ring specimens. The resulting ring specimens were attached to an organ bus filled with Krebs solution of 37° C. (119 mM NaCl/4.7 mM KCl/1.1 mM KH2PO4/1.2 mM MgSO4/25 mM NaHCO3, pH 7.4) in which a mixed gas of 95% O2-5% CO2 was aerated, then a static tension of 1.5 g was applied (UFER UC-05A; Iwashiya Kishimoto Ika Sangyo K.K., Kyoto). Vascular tension was measured by UFER UM-203 transducer (Iwashiya Kishimoto Ika Sangyo). After 60-min incubation from the attachment, the ring specimens were constricted using a vasoconstrictor phenylephrine (final concentration of 0.30 μM). To the constricted ring specimens, commercially available acetylcholine, that is an endothelium-dependent vasodilator (final concentration of 100 μM) was added, and presence/absence of vascular endothelium was determined by presence/absence of vasodilatory effect. Then, the ring specimens were washed with Krebs solution to remove the drugs, incubated at static tension for 10 min, and again constricted by 0.30 μM phenylephrine."}}, "note": "Like-named read-outs stand apart in the source and are kept apart here."}
{"smiles": "CCC(=O)OCC[N+](C)(C)C", "note": "[propionylcholine]", "values": [{"measurement": "maximum decrease in systolic blood pressure", "setting": "[1]", "result": 8.05, "unit": "mmHg"}, {"measurement": "blood pressure effect compared to the control group", "setting": "[1]", "result": "significant vasodilatory effect"}, {"measurement": "maximum dilation rate", "setting": "[2]; at 10^−4 M", "result": 95.2, "unit": "%"}, {"measurement": "concentration from which a vasodilatory effect / dilation reaction is shown", "setting": "[2]; hydrochloride salts", "result": "10^−7 M"}, {"measurement": "EC50", "setting": "[2]; hydrochloride salts, cumulative addition 10^−9 to 10^−4 M, read-out: EC50 of vasodilatory effect", "result": 2270, "unit": "nM"}]}
{"smiles": "CC(=O)OCC[N+](C)(C)C", "note": "[acetylcholine]", "values": [{"measurement": "maximum decrease in systolic blood pressure", "setting": "[1]", "result": 24.7, "unit": "mmHg"}, {"measurement": "EC50", "setting": "[2]; Rattus norvegicus, hydrochloride salt, summary sentence b69, read-out: EC50 of vasodilatory effect (unit inferred)", "result": 27.2, "unit": "nM"}, {"measurement": "EC50", "setting": "[2]; Rattus norvegicus, hydrochloride salts, cumulative addition 10^−9 to 10^−4 M, read-out: EC50 of vasodilatory effect", "result": 27.2, "unit": "nM"}, {"measurement": "maximum dilation rate", "setting": "[2]; at 10^−6 M", "result": 89.9, "unit": "%"}, {"measurement": "dilation rate", "setting": "[2]; at the addition", "result": 1.52, "unit": "%"}, {"measurement": "concentration from which a vasodilatory effect / dilation reaction is shown", "setting": "[2]; hydrochloride salts", "result": "10^−9 M"}]}
{"smiles": "CCCC(=O)OCC[N+](C)(C)C", "note": "[butyrylcholine]", "values": [{"measurement": "blood pressure effect compared to the control group", "setting": "[1]", "result": "no significant decrease in blood pressure"}, {"measurement": "dilation", "setting": "[2]; at the addition of 10^−4 M", "result": 7.14, "unit": "%"}]}
